# System: Toxoplasma gondii
# Assay: MMV: A total of 100ul of inoculum was added to each well (parasite/cell ratio, ~10:1; final volume, 200 ul). Six hours after inoculation, nonadherent parasites were removed, and 100 ul of complete DMEM (1% penicillin-streptomycin, 3% FBS) supplemented with inhibitors at different concentrations (2-fold serial dilutions starting from 30 uM) was added to all except the negative-control wells. Positive controls, consisting of pyrimethamine (PYR) and sulfadiazine (SDZ) (20-mg/ml stocks in DMSO), were tested at a 2mg/ml final concentration. Each test was performed in triplicate.
# Assay type: functional, organism-based
# Conditions: 6 h
row,SMILES,IC50 [µM]
1,COc1ccc(C=C2SC(=N)N(c3ccccc3OC)C2=O)cc1,> 30
2,COc1ccc(NC(=O)C2c3ccccc3C(=O)N(CC(C)C)C2c2cccs2)cc1Cl (stereo unspecified),> 30
3,CCOC(=O)c1c(C)n(-c2ccc(Cl)cc2)c2ccc(OC(=O)C=Cc3ccccc3)cc12,> 30
4,COc1ccc2c(c1)OC(O)(C(F)(F)C(F)(F)F)CC2=O (stereo unspecified),> 30
5,CCOc1cc(Cl)c(C(C)NC(=O)c2ccccc2)cc1OCC (stereo unspecified),> 30
6,C=CC12CCN(CC1)C(C(O)c1ccnc3ccc(OC)cc13)C2 (stereo unspecified),> 30
7,Cc1ccc(-c2cc3nc4c(c(O)n3n2)CCCC4)cc1,8.22
8,Cc1cccc(Nc2nc(N)c3ccccc3n2)c1,> 30
9,CCn1c(CN2CCN(Cc3ccccc3)CC2)nc2cc(NC(=O)c3cccs3)ccc21,> 30
10,COc1ccccc1CNC(=O)CCn1c(=O)[nH]c2ccccc2c1=O,> 30
11,c1ccc2cc3c(Nc4ccc(N5CCOCC5)cc4)ccnc3cc2c1,> 30
12,Cc1cc(C)c2c(c1)OCN(Cc1ccccc1Cl)C2,> 30
13,COc1cc(OC)c(N(C)C(=O)c2cc3c(s2)-c2ccccc2S(=O)(=O)C3)cc1Cl,> 30
14,COc1ccccc1NC1=C(N2CCCCC2)C(=O)c2ccccc2C1=O,4.54
15,CCOC(=O)c1cn(CC)c2cc(N3CCCCC3)c(F)cc2c1=O,> 30
16,CCCc1cc(O)c2c3c(c(=O)oc2c1)CN(C)CC3,> 30
17,Cc1cc(NC(=O)C2c3ccccc3C(=O)N(CC(C)C)C2c2cccs2)no1 (stereo unspecified),20.9
18,Oc1ccccc1CNCC12CC3CC(CC(C3)C1)C2,> 30
19,CNCCCNc1ccnc2cc(Cl)ccc12,> 30
20,COc1ccccc1CNC(=O)CCn1c(=O)[nH]c2ccsc2c1=O,20.9
21,COc1ccc(Br)cc1C1Nc2ccc3ccccc3c2C2=C1C(=O)CC(c1ccccc1)C2 (stereo unspecified),> 30
22,Cc1cc(C=C2SC(=Nc3ccccc3)N(C3CCCC3)C2=O)c(C)n1-c1ccc(Cl)cc1,> 30

row,SMILES,IC50 [µM]
1,CCn1c(SCC(=O)Nc2cc(C(F)(F)F)ccc2Cl)nc2ccccc2c1=O,> 30
2,Cc1ccc(Cn2c(N3CCC(C(=O)NCc4cccs4)CC3)nc3ccccc32)cc1,> 30
3,CC1CCN(Cc2ccc(NC(=O)c3cc4ccc5cccnc5c4[nH]3)cc2)CC1,> 30
4,O=C(Nc1ccc(Cl)cc1C(=O)Nc1ccncc1)c1ccc(Cl)cc1Cl,19
5,CCOc1ccc(-c2nonc2NC(=O)c2cccc(C)c2)cc1OCC,> 30
6,CCc1ccc(Nc2cc(C)c3ccc(O)cc3n2)cc1,> 30
7,COc1ccc2c(=O)cc(C(Cl)(Cl)Cl)oc2c1,6.45
8,CSc1ccccc1C(=O)Nc1nc(-c2ccccn2)cs1,> 30
9,CCCCc1ccc(NS(=O)(=O)c2cc3c4c(c2)CCN4C(=O)CC3)cc1,> 30
10,COc1ccc(-c2nc3cc(Cc4ccc5[nH]c(-c6ccc(OC)cc6)nc5c4)ccc3[nH]2)cc1,> 30
11,CCOC(=O)c1ccc2nc(-c3ccccc3)cc(O)c2c1,> 30
12,Cc1cc(Nc2ccc(Cl)cc2)n2nc(C(F)(F)F)nc2n1,> 30
13,COc1ccc(C(C)=O)cc1N1C(=O)C2C(C1=O)C1(c3ccccc3)C(=O)C2(c2ccccc2)C(c2ccc(C)cc2)=C1c1ccc(C)cc1 (stereo unspecified),> 30
14,CCCCCCOC(=O)C1=C(C)NC(=O)NC1c1ccccc1F (stereo unspecified),> 30
15,Cc1ccc(N2C3c4ccccc4N(S(=O)(=O)c4ccc(C)cc4)C2c2ccccc2N3S(=O)(=O)c2ccc(C)cc2)cc1,> 30
16,CCCc1c(CC)c(=N)c2ccccc2n1C,> 30
17,Cc1ccc(Nc2nc(NCCO)c3ccccc3n2)cc1C,> 30
18,CC1CCCCN1CCCNC(=O)c1ccc2c(c1)sc1nc(-c3ccc(F)cc3)cn12 (stereo unspecified),> 30
19,CCOC(=O)c1cnc2c(C)cc(C)cc2c1Nc1ccc(OC)c(OC)c1,> 30
20,COc1ccc(NC(=O)C2c3ccccc3C(=O)N(CC(C)C)C2c2cccs2)cc1 (stereo unspecified),> 30
21,c1ccc(Cn2c(N=Nc3c(Nc4ccccc4)ccc4ccccc34)nc3ccccc32)cc1,13.5

# System: Entamoeba histolytica
# Assay: MMV: Primary screening was performed with each compound at a 30 uM final concentration and in triplicate in sealed 96-well polystyrene microtiter plates. Parasite inocula (100 ul) comprising 20000 parasites/ml were added to each well and grown at 37 degrees C in a humidified atmosphere of 5% CO2 for 72 h. Positive controls consisted of metronidazole at 1 mg/ml. The growth of E. histolytica trophozoites in each well was determined microscopically by measuring the diameters of the confluent cells in drug-containing wells relative to those in the nega- tive-control wells.
# Assay type: functional, organism-based
# Conditions: not given
row,SMILES,IC50 [µM]
1,COc1ccc(C=C2SC(=N)N(c3ccccc3OC)C2=O)cc1,> 30
2,COc1ccc(NC(=O)C2c3ccccc3C(=O)N(CC(C)C)C2c2cccs2)cc1Cl (stereo unspecified),> 30
3,CCOC(=O)c1c(C)n(-c2ccc(Cl)cc2)c2ccc(OC(=O)C=Cc3ccccc3)cc12,10.7
4,COc1ccc2c(c1)OC(O)(C(F)(F)C(F)(F)F)CC2=O (stereo unspecified),> 30
5,CCOc1cc(Cl)c(C(C)NC(=O)c2ccccc2)cc1OCC (stereo unspecified),> 30
6,C=CC12CCN(CC1)C(C(O)c1ccnc3ccc(OC)cc13)C2 (stereo unspecified),> 30
7,Cc1ccc(-c2cc3nc4c(c(O)n3n2)CCCC4)cc1,> 30
8,Cc1cccc(Nc2nc(N)c3ccccc3n2)c1,> 30
9,CCn1c(CN2CCN(Cc3ccccc3)CC2)nc2cc(NC(=O)c3cccs3)ccc21,> 30
10,COc1ccccc1CNC(=O)CCn1c(=O)[nH]c2ccccc2c1=O,> 30
11,c1ccc2cc3c(Nc4ccc(N5CCOCC5)cc4)ccnc3cc2c1,15.6
12,Cc1cc(C)c2c(c1)OCN(Cc1ccccc1Cl)C2,> 30
13,COc1cc(OC)c(N(C)C(=O)c2cc3c(s2)-c2ccccc2S(=O)(=O)C3)cc1Cl,> 30
14,COc1ccccc1NC1=C(N2CCCCC2)C(=O)c2ccccc2C1=O,> 30
15,CCOC(=O)c1cn(CC)c2cc(N3CCCCC3)c(F)cc2c1=O,> 30
16,CCCc1cc(O)c2c3c(c(=O)oc2c1)CN(C)CC3,> 30
17,Cc1cc(NC(=O)C2c3ccccc3C(=O)N(CC(C)C)C2c2cccs2)no1 (stereo unspecified),> 30
18,Oc1ccccc1CNCC12CC3CC(CC(C3)C1)C2,> 30
19,CNCCCNc1ccnc2cc(Cl)ccc12,> 30
20,COc1ccccc1CNC(=O)CCn1c(=O)[nH]c2ccsc2c1=O,> 30
21,COc1ccc(Br)cc1C1Nc2ccc3ccccc3c2C2=C1C(=O)CC(c1ccccc1)C2 (stereo unspecified),> 30
22,Cc1cc(C=C2SC(=Nc3ccccc3)N(C3CCCC3)C2=O)c(C)n1-c1ccc(Cl)cc1,> 30

row,SMILES,IC50 [µM]
1,CCn1c(SCC(=O)Nc2cc(C(F)(F)F)ccc2Cl)nc2ccccc2c1=O,> 30
2,Cc1ccc(Cn2c(N3CCC(C(=O)NCc4cccs4)CC3)nc3ccccc32)cc1,> 30
3,CC1CCN(Cc2ccc(NC(=O)c3cc4ccc5cccnc5c4[nH]3)cc2)CC1,> 30
4,O=C(Nc1ccc(Cl)cc1C(=O)Nc1ccncc1)c1ccc(Cl)cc1Cl,> 30
5,CCOc1ccc(-c2nonc2NC(=O)c2cccc(C)c2)cc1OCC,> 30
6,CCc1ccc(Nc2cc(C)c3ccc(O)cc3n2)cc1,> 30
7,COc1ccc2c(=O)cc(C(Cl)(Cl)Cl)oc2c1,> 30
8,CSc1ccccc1C(=O)Nc1nc(-c2ccccn2)cs1,> 30
9,CCCCc1ccc(NS(=O)(=O)c2cc3c4c(c2)CCN4C(=O)CC3)cc1,> 30
10,COc1ccc(-c2nc3cc(Cc4ccc5[nH]c(-c6ccc(OC)cc6)nc5c4)ccc3[nH]2)cc1,> 30
11,CCOC(=O)c1ccc2nc(-c3ccccc3)cc(O)c2c1,> 30
12,Cc1cc(Nc2ccc(Cl)cc2)n2nc(C(F)(F)F)nc2n1,> 30
13,COc1ccc(C(C)=O)cc1N1C(=O)C2C(C1=O)C1(c3ccccc3)C(=O)C2(c2ccccc2)C(c2ccc(C)cc2)=C1c1ccc(C)cc1 (stereo unspecified),> 30
14,CCCCCCOC(=O)C1=C(C)NC(=O)NC1c1ccccc1F (stereo unspecified),> 30
15,Cc1ccc(N2C3c4ccccc4N(S(=O)(=O)c4ccc(C)cc4)C2c2ccccc2N3S(=O)(=O)c2ccc(C)cc2)cc1,> 30
16,CCCc1c(CC)c(=N)c2ccccc2n1C,> 30
17,Cc1ccc(Nc2nc(NCCO)c3ccccc3n2)cc1C,> 30
18,CC1CCCCN1CCCNC(=O)c1ccc2c(c1)sc1nc(-c3ccc(F)cc3)cn12 (stereo unspecified),> 30
19,CCOC(=O)c1cnc2c(C)cc(C)cc2c1Nc1ccc(OC)c(OC)c1,> 30
20,COc1ccc(NC(=O)C2c3ccccc3C(=O)N(CC(C)C)C2c2cccs2)cc1 (stereo unspecified),> 30
21,c1ccc(Cn2c(N=Nc3c(Nc4ccccc4)ccc4ccccc34)nc3ccccc32)cc1,> 30

# Reference: ChEMBL document CHEMBL3301448, “MMV Malaria Box screening against Toxoplasma gondii and Entamoeba histolytica”
